Source: patent US3954814A, “Alkadienylcyclopropanecarboxylates” (Sumitomo Chemical Company, Limited, priority 1971, dated 1976)
Values after ≈ are worked out from the molar mass of the structure shown.

Tests used:
Assay type in all cases: in vivo
[1] = test system: house flies; assay: Campbell's turn table oil spray test on house fly adults (Experimental Example 1); details: Musca domestica, 24 h, oil spray 5 ml, 10 min exposure, mortality after 1 day, read-out: LC50 (50 percent lethal concentration)
Protocol: The present compounds (1), (4), (8), (10), (14), (15), (20), (22), (32), (36), (38), (41), (44), (48), (50), (51), (52), (53), (61), (66), (68), (72), (73), (78), (80), (81), (90), (93) and (96), and chrysanthemic acid esters and pyrethric acid esters corresponding thereto were individually formulated by use of deodorized kerosene into oil sprays of various test concentrations.
Using the Campbell's turn table [disclosed in "Soap & Sanitary Chemicals," Vol. 14, No. 6, page 119 (1938)], 5 ml. of each of the oil sprays was sprayed. When 20 seconds had elapsed after the spraying, the shutter was opened, and adults of house flies (a group of about 100 flies) were exposed to the settling mist for 10 minutes and then transferred to an observation cage.
The above operation was repeated several times to measure the LC50 (50 percent lethal concentration) of each compound.

[2] = test system: rice stem borer larvae; assay: micro dropping (topical) test on hibernating rice stem borer larvae (Experimental Example 3); details: topical in acetone, head and tail of larvae, 3 days
Text: The present compounds (1), (4), (8), (10), (14), (15), (22), (32), (36), (38), (41), (44), (48), (50), (51), (52), (53), (61), (66), (68), (72), (73), (80), (81), (90) and (93) and chrysanthemic acid esters corresponding thereto were individually dissolved in acetone to prepare insecticides of various concentrations. Using a micro dropping means, each of the insecticides was dropped to the head and tail of hibernating rice stem borer larvae.

[3] = test system: Northern house mosquitoes; assay: knock-down test of oil sprays on Northern house mosquito adults in (70 cm)^3 glass chamber (Experimental Example 2); details: concentration of oil spray 0.1%
Protocol: The present compounds (1), (6), (20), (22), (23), (25), (27), (29), (30), (31), (39), (42), (43), (45), (49), (53), (56), (62), (64), (78), (81), (83), (85), (87), (88) and (89), and chrysanthemic acid esters and pyrethric acid esters corresponding thereto were individually formulated by use of deodorized kerosene into oil sprays of various test concentrations.
About 20 adults of Northern house mosquitoes were liberated in a (70 cm)^3 glass chamber, and 0.7 ml. of each of the oil sprays was sprayed into the chamber under a pressure of 1.5 kg/cm^2 by use of a glass atomizer. Subsequently, the number of knocked-down mosquitoes was counted to calculate the KT50 (50 percent knock down time) of each compound.

Structure (SMILES)	LC50 [1] [µg/mL]	LD50 (50 percent lethal dose) [2]	KT50 (50 percent knock down time) [3] [s]
C=CC=CC1C(C(=O)OCc2cccc(Oc3ccccc3)c2)C1(C)C (stereo not shown) [Present compound (73), 3-Phenoxybenzyl 2',2'-dimethyl-3'-(1",3"-butadienyl)-cyclopropanecarboxylate]	60 (≈ 172 µM)	0.26 γ/larva	–
CC=CC(C)=CC1C(C(=O)OCc2cccc(Oc3ccccc3)c2)C1(C)C (stereo not shown) [Present compound (41), 3-Phenoxybenzyl 2',2'-dimethyl-3'-(2"-methyl-1",3"-pentadienyl)-cyclopropanecarboxylate]	100 (≈ 266 µM)	0.48 γ/larva	–
CC(C)=CC1C(C(=O)OCc2cccc(Cc3ccccc3)c2)C1(C)C (stereo not shown) [3-Benzylbenzyl chrysanthemate, reference compound]	270 (≈ 775 µM)	1.20 γ/larva	–
C=CC(C)=CC1C(C(=O)OCc2ccc(Oc3ccccc3)o2)C1(C)C (stereo not shown) [Present compound (14), 5-Phenoxyfurfuryl 2',2'-dimethyl-3'-(2"-methyl-1",3"-butadienyl)-cyclopropanecarboxylate]	47 (≈ 133 µM)	0.040 γ/larva	–
C=CC=CC1C(C(=O)OCc2cc3c(o2)CCCC3)C1(C)C (stereo not shown) [Present compound (68), 4,5-Tetramethylenefurfuryl 2',2'-dimethyl-3'-(1",3"-butadienyl)-cyclopropanecarboxylate]	110 (≈ 366 µM)	0.26 γ/larva	–
C=CCc1cc(C)c(COC(=O)C2C(C=C(C)C)C2(C)C)c(C)c1 (stereo not shown) [2,6-Dimethyl-4-allylbenzyl chrysanthemate, reference compound]	650 (≈ 1990 µM)	0.35 γ/larva	–
CC=CC=CC1C(C(=O)OCc2coc(Cc3ccccc3)c2)C1(C)C (stereo not shown) [Present compound (51), 5-Benzyl-3-furylmethyl 2',2'-dimethyl-3'-(1",3"-pentadienyl)-cyclopropanecarboxylate]	56 (≈ 160 µM)	0.065 γ/larva	–
C=CC=CC1C(C(=O)OCC=C(Cl)Cc2ccccc2)C1(C)C (stereo not shown) [Present compound (90), 3-Chloro-4-phenyl-2-butene-1-yl 2',2'-dimethyl-3'-(1",3"-butadienyl)-cyclopropanecarboxylate]	170 (≈ 514 µM)	0.43 γ/larva	–
CC(C)=CC1C(C(=O)OCC=C(Cl)Cc2ccccc2)C1(C)C (stereo not shown) [3-Chloro-4-phenyl-2-butene-1-yl chrysanthemate, reference compound]	360 (≈ 1080 µM)	0.68 γ/larva	–
CC(C)=CC1C(C(=O)OCc2ccc(Oc3ccccc3)o2)C1(C)C (stereo not shown) [5-Phenoxyfurfuryl chrysanthemate, reference compound]	85 (≈ 250 µM)	0.12 γ/larva	–
C=CC(C)=CC1C(C(=O)OCc2cccc(Oc3ccccc3)c2)C1(C)C (stereo not shown) [Present compound (15), 3-Phenoxybenzyl 2',2'-dimethyl-3'-(2"-methyl-1",3"-butadienyl)-cyclopropanecarboxylate]	68 (≈ 188 µM)	0.29 γ/larva	–
CC(C)=CC1C(C(=O)OCc2cccc(Oc3ccccc3)c2)C1(C)C (stereo not shown) [3-Phenoxybenzyl chrysanthemate, reference compound]	170 (≈ 485 µM)	0.72 γ/larva	–
C#CCc1ccc(C(C#C)OC(=O)C2C(C=CC=C)C2(C)C)o1 (stereo not drawn) [Present compound (78), 5-Propargyl-α-ethynylfurfuryl 2',2'-dimethyl-3'-(1",3"-butadienyl)-cyclopropanecarboxylate]	82 (≈ 266 µM)	–	93
C=CC(C)=CC1C(C(=O)OCC=C(Cl)Cc2ccccc2)C1(C)C (stereo not shown) [Present compound (32), 3-Chloro-4-phenyl-2-butene-1-yl 2',2'-dimethyl-3'-(2"-methyl-1",3"-butadienyl)-cyclopropanecarboxylate]	190 (≈ 551 µM)	0.52 γ/larva	–
C=CC(C)=CC1C(C(=O)OCc2cccc(Cc3ccccc3)c2)C1(C)C (stereo not shown) [Present compound (4), 3-Benzylbenzyl 2',2'-dimethyl-3'-(2"-methyl-1",3"-butadienyl)-cyclopropanecarboxylate]	110 (≈ 305 µM)	0.71 γ/larva	–
C#CCc1ccc(COC(=O)C2C(C=C(C)C=C)C2(C)C)cc1 (stereo not shown) [Present compound (8), 4-Propargylbenzyl 2',2'-dimethyl-3'-(2"-methyl-1",3"-butadienyl)-cyclopropanecarboxylate]	500 (≈ 1620 µM)	0.37 γ/larva	–
C#CCc1ccc(COC(=O)C2C(C=CC=C)C2(C)C)cc1 (stereo not shown) [Present compound (66), 4-Propargylbenzyl 2',2'-dimethyl-3'-(1",3"-butadienyl)-cyclopropanecarboxylate]	350 (≈ 1190 µM)	0.31 γ/larva	–
CC(C)=CC(C)=CC1C(C(=O)OCc2cccc(Oc3ccccc3)c2)C1(C)C (stereo not shown) [Present compound (48), 3-Phenoxybenzyl 2',2'-dimethyl-3'-(2",4"-dimethyl-1",3"-pentadienyl)-cyclopropanecarboxylate]	140 (≈ 358 µM)	0.56 γ/larva	–
C=CC=CC1C(C(=O)OCc2ccc(Oc3ccccc3)o2)C1(C)C (stereo not shown) [Present compound (72), 5-Phenoxyfurfuryl 2',2'-dimethyl-3'-(1",3"-butadienyl)-cyclopropanecarboxylate]	41 (≈ 121 µM)	0.034 γ/larva	–
C=CCc1cc(C)c(COC(=O)C2C(C=C(C)C=C)C2(C)C)c(C)c1 (stereo not shown) [Present compound (36), 2,6-Dimethyl-4-allylbenzyl 2',2'-dimethyl-3'-(2"-methyl-1",3"-butadienyl)-cyclopropanecarboxylate]	390 (≈ 1150 µM)	0.28 γ/larva	–
C=CC=CC1C(C(=O)OCc2cccc(Cc3ccccc3)c2)C1(C)C (stereo not shown) [Present compound (61), 3-Benzylbenzyl 2',2'-dimethyl-3"-(1",3"-butadienyl)-cyclopropanecarboxylate]	90 (≈ 260 µM)	0.50 γ/larva	–
C=CC(C)=CC1C(C(=O)OCc2cc3c(o2)CCCC3)C1(C)C (stereo not shown) [Present compound (10), 4,5-Tetramethylenefurfuryl 2',2'-dimethyl-3'-(2"-methyl-1",3"-butadienyl)-cyclopropanecarboxylate]	120 (≈ 382 µM)	0.32 γ/larva	–
CC(C)=CC1C(C(=O)OCc2cc3c(o2)CCCC3)C1(C)C (stereo not shown) [4,5-Tetramethylenefurfuryl chrysanthemate, reference compound]	160 (≈ 529 µM)	0.75 γ/larva	–
CC=CC(C)=CC1C(C(=O)OCc2coc(Cc3ccccc3)c2)C1(C)C (stereo not shown) [Present compound (38), 5-Benzyl-3-furylmethyl 2',2'-dimethyl-3'-(2"-methyl-1",3"-pentadienyl)-cyclopropanecarboxylate]	66 (≈ 181 µM)	0.102 γ/larva	–
C=CC=CC1C(C(=O)OCc2coc(Cc3ccccc3)c2)C1(C)C (stereo not shown) [Present compound (50), 5-Benzyl-3-furylmethyl 2',2'-dimethyl-3'-(1",3"-butadienyl)-cyclopropanecarboxylate]	44 (≈ 131 µM)	0.057 γ/larva	–
CC(C)=CC=CC1C(C(=O)OCc2coc(Cc3ccccc3)c2)C1(C)C (stereo not shown) [Present compound (52), 5-Benzyl-3-furylmethyl 2',2'-dimethyl-3'-(4"-methyl-1",3"-pentadienyl)-cyclopropanecarboxylate]	52 (≈ 143 µM)	0.100 γ/larva	–
CC(C)=CC(C)=CC1C(C(=O)OCc2coc(Cc3ccccc3)c2)C1(C)C (stereo not shown) [Present compound (44), 5-Benzyl-3-furylmethyl 2',2'-dimethyl-3'-(2",4"-dimethyl-1",3"-pentadienyl)-cyclopropanecarboxylate]	63 (≈ 166 µM)	0.145 γ/larva	–
C=CC=CC1C(C(=O)OCc2c(C)cc(CC=C)cc2C)C1(C)C (stereo not shown) [Present compound (93), 2,6-Dimethyl-4-allylbenzyl 2',2'-dimethyl-3'-(1",3"-butadienyl)-cyclopropanecarboxylate]	230 (≈ 709 µM)	0.21 γ/larva	–
C#CCc1ccc(C(C#C)OC(=O)C2C(C=C(C)C=C)C2(C)C)o1 (stereo not shown) [Present compound (20), 5-Propargylα-ethynylfurfuryl 2',2'-dimethyl-3'-(2"-methyl-1",3"-butadienyl)-cyclopropanecarboxylate]	90 (≈ 279 µM)	–	102
